Measurements published in PMC5085626, “Characterization of a β-Adrenergic-Like Octopamine Receptor in the Oriental Fruit Fly, Bactrocera dorsalis (Hendel)” (International Journal of Molecular Sciences, 2016).
Counter-ions that a name gives are not always drawn.

What was measured:
BdOctβR1 [1] = molecular target: T1, BdOctβR1 (Bactrocera dorsalis, UniProt A0ABM3J3U4)
Method: (§1) For the cAMP response assays, we used the non-lytic GloSensor cyclic AMP assay kit (Promega) for monitoring intracellular cAMP in live cells. At the same time, the empty pcDNA3.1 vector was transfected in HEK-293 cells as a negative control. The methods for transient expression of BdOctβR1 in HEK-293 cells and procedures for the assays were followed as previously described [41, 42, 43, 44]. Thirty hours after the transfection, the cells were collected and preincubated with 1% GloSensor substrate in HEK-293 cells (Invitrogen) before the test. Ligands being tested were plated in each well of the 96-well plate. As described previously, the cells were injected into a well, and the changes in luminescence were monitored [45].
(§2) The antagonist assay was examined with serial dilutions of antagonists in the transfected cells on a luminescence detection systems (Berthold Technologies). Basically, the antagonistic activity assay was conducted in 2 sequential treatments. In the 1st treatment, various concentrations of ligands (50 μL in volume) were plated in each well, including a solvent (DMEM, Dulbecco’s modified Eagle’s medium) as control. Following the injection of the cells into the well, a 30-min incubation with the tested ligands was conducted. Subsequently, the 2nd treatment was conducted. The cells were treated with 1.00 × 10^−6 M octopamine, which was the minimum concentration inducing the maximal activity, and the luminescent response was measured. For the assays, the cells treated with DMEM in both the 1st and 2nd treatment were set as background. The cells were treated with DMEM in the 1st treatment, while 1.00 × 10^−6 M octopamine in the 2nd treatment, without adding any antagonist, served as positive control. Relative luminescence of ligand was normalized to the largest positive control response in each plate (1.00 × 10^−6 M octopamine) after background subtractions [43]. The values calculated in the treatment were used to construct the inhibitor concentration–response curves. […]

DmOctβR1 [2] = test system: DmOctβR1; parameters: method as in PMID 15998303; conditions: DmOctβR1 in Drosophila; cited from earlier work
BdOctβR1 [3] = molecular target: T1, BdOctβR1; assay: cell-based
Method: as §1, §2

BdOctβR1 [4] = molecular target: T1, BdOctβR1; assay: Agonist cAMP response assay (GloSensor luminescence) of BdOctβR1 transiently expressed in HEK-293 cells; assay type: cell-based; conditions: for EC50: BdOctβR1 in HEK-293 cells, cAMP luminescence, read-out: median effective concentration (EC50)
Source text: A 10-fold serial dilution of the ligands octopamine, tyramine, dopamine, naphazoline, and phentolamine was applied to the cells. […] The authentic ligand octopamine was selected as the model ligand for normalization of the luminescence. A concentration–response curve was generated for each receptor by logistic fitting in Origin 8.6 (OriginLab, Northampton, MA, USA) as previously reported.

[5] = test system: empty pcDNA3.1 vector-transfected HEK-293 cells; assay: Negative control: cAMP luminescence in empty pcDNA3.1 vector-transfected HEK-293 cells; assay type: cell-based; conditions: ligands at 1.00 × 10^−6 M
DmOctβR1 [6] = test system: DmOctβR1; parameters: method as in PMID 15998303; conditions: DmOctβR1 of D. melanogaster; cited from earlier work
AmOctβR1 = test system: AmOctβR1; parameters: method as in PMID 24266860; conditions: AmOctβR1 of A. mellifera; cited from earlier work

T1 sequence (A0ABM3J3U4 entry or part of it): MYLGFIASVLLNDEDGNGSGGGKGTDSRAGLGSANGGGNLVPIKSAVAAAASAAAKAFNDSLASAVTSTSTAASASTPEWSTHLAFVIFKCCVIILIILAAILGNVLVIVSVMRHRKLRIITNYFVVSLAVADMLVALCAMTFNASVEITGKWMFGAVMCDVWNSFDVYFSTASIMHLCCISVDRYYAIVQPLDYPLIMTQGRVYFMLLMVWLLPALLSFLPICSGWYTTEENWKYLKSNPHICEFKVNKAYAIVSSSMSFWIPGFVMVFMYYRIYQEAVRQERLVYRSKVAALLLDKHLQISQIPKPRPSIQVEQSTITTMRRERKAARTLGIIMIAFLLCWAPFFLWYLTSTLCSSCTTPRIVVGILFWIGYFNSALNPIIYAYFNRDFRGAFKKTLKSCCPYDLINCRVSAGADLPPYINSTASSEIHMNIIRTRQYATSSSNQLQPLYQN

Compound: CN(C)CCCN1c2ccccc2Sc2ccc(Cl)cc21 [chlorpromazine, chlorpromazine hydrochloride]
- antagonistic activity (in words) (BdOctβR1 [1]): weak antagonistic activity
- antagonistic activity (in words) (DmOctβR1 [2]): ineffective
- IC50 (BdOctβR1 [3]): 2660 nM

Compound: CN1CCN2c3ccccc3Cc3ccccc3C2C1 (centres unmarked) [mianserin, mianserin hydrochloride]
- antagonistic activity (in words) (DmOctβR1 [2]): blocked

Compound: c1ccc2c(CC3=NCCN3)cccc2c1 [naphazoline, naphazoline hydrochloride]
- EC50 (BdOctβR1 [4]): 0.635 nM

Compound: Cc1ccc(N(CC2=NCCN2)c2cccc(O)c2)cc1 [phentolamine, phentolamine hydrochloride]
- Emax at 10 µM (BdOctβR1 [4]; HEK293, at 1.00 × 10^−5 M, normalized to octopamine at 1 × 10^−5 M (=100%), read-out: agonistic effect (relative cAMP luminescence)): ~20%
- IC50 (BdOctβR1 [3]): 3800 nM

Compound: NCCc1ccc(O)c(O)c1 [dopamine, dopamine hydrochloride]
- EC50 (BdOctβR1 [4]): 3320 nM

Compound: NCCc1ccc(O)cc1 [tyramine, Tyramine hydrochloride]
- EC50 (BdOctβR1 [4]): 19.7 nM
- effect on cAMP luminescence / cAMP production in empty-vector cells [5]: not

Compound: NCC(O)c1ccc(O)cc1 (racemic) [octopamine, (±)-octopamine hydrochloride]
- EC50 (BdOctβR1 [4]): 0.911 nM
- effect on cAMP luminescence / cAMP production in empty-vector cells [5]: not
- EC50 (DmOctβR1 [6]): 5.56 nM
- EC50 (AmOctβR1): 43.9 nM
